Values joined by “and” are separate entries in the source; they are usually repeats but may differ in a detail not shown here. Identical values can stand only once. Marks after values point to notes of the source that are not given here.

Consider one substance from US6864086B2, “Nitric oxide-scavenging system for culturing oocytes, embryos, or other cells” (Board of Supervisors of Louisiana State University and …, priority 1998, dated 2005).

This experiment deals with bovine embryos cultured in groups. Description: Example 6: Hb (1 μg/ml) in mBECM-C in presence or absence of cumulus-granulosa cells. The format is cell-based. Here is the method:
mBECM containing 10 μM β-mercaptoethanol was used to culture embryos, as described in J. Lim et al., “Roles of growth factors in the development of bovine embryos fertilized in vitro and cultured singly in a defined medium,” Reprod. Fertil. Dev., 8, 1199-1205 (1996). To culture individual 8-cell embryos we used mBECM supplemented with 1 ng/ml platelet derived growth factor type AB (PDGF; Upstate Biotechnology Inc., Lake Placid, N.Y.), 1 ng/ml transforming growth factor-β (TGF; R & D System, Minneapolis, Minn.), 50 ng/ml arachidonic acid (AA; Cayman Chemical Co., Ann Arbor, Mich.), 100 μM glutathione (GSH; Sigma Co.) and 1 mg/ml polyvinyl alcohol (PVA) (mBECM-S). mBECM to which 10% (v/v) FBS was added (mBECM-C) was used for co-culturing inseminated zygotes with CGs and for producing 8-cell embryos. Osmolarity of the medium was maintained within the range of 265-290 mOsm.
The bovine cumulus-oocyte complexes (COCs) used were collected in Madison, Wis. (BOMED, Inc.), and were shipped in 2-ml of maturation medium in a battery powered incubator via overnight express mail service. Oocytes matured during transit and arrived within 24 h after exposure to maturation medium, pre-equilibrated at 39° C. in 5% CO2 in air. At 22-24 h after exposure to the medium, the COCs were inseminated in vitro as described in J. Lim et al., “Intracytoplasmic glutathione concentration and the role of β-mercaptoethanol in preimplantation development of bovine embryos,” Theriogenology, 46, 429-439 (1996). At 18 h post-insemination, COCs were cultured in groups (30-35 embryos) in a 4-well multidish (Nunc, Roskilde, Denmark) containing 0.8-ml of mBECM-C. Embryos were dislodged from CGs at 36-48 h post-insemination.
In Example 1, embryos (83-85 per group) collected 18 h post-insemination were cultured in mBECM-C, to which 0, 0.008, or 0.04 mM SNP was added at 18 or 60 h post-insemination. In Example 2, 8-cell embryos (80 per group) were produced in a co-culture system containing CGs and mBECM-C, and then beginning at 60 h post-insemination were cultured singly in a defined culture medium (mBECM-S), to which 0, 0.0016, 0.008, or 0.04 mM of SNP (S-0501, Sigma Co.) was added. In Example 3 embryos, either uncleaved (n=99) or developed to the 2-cell stage (90), were collected 48 h post-insemination; and cleaved embryos, either developed to the morula stage (69) or degenerate (63) were collected 144 h post-insemination. NO metabolites were then measured in the embryos. In Example 4, three groups of 95 zygotes each were co-cultured with CGs in mBECM-C, to which 0, 1, or 10 μg/ml Hb (bovine, mainly methemoglobin, H-2500, Sigma Co.) was added. […] Inseminated oocytes (104 per group) were co-cultured with CGs in MBECM-C up to 192 h post-insemination; and Hb (1 μg/ml) was added to the medium at 18, 60, or 144 h post-insemination. In Example 6, inseminated oocytes (93 per group) were cultured in the presence or absence of CGs in mBECM-C to which either 0 or 1 μg/ml Hb was added. In Example 7, 8-cell embryos (100 per group), obtained after culture in mBECM-C supplemented with Hb (1 μg/ml), were cultured singly in mBECM-S, with or without Hb.
Oocytes or 8-cell embryos were randomly and equally allocated to each treatment group. In Examples 1, 2, and 4-7, oocytes or embryos that had developed to the 2-cell, 8-cell, >8-cell, 16-cell morula, and blastocyst stages were individually scored ‘1’ (developed) at 48, 60, 96, 120, 144 and 192 h post-insemination, respectively. […] Sums of the scores in each stage of development were evaluated by analysis of variance (ANOVA) using the general linear model (PROC-GLM) in the SAS program software. In Example 3, concentrations of NO metabolites in embryos were subjected to ANOVA. […] Differences were regarded as statistically significant where P values were less than 0.05.

On to hemoglobin [Hb], for which, under “Hb 1 μg/ml + CG”, the “Percent of Embryos Developed to 2-cell” value amounted to 77%; the “Percent of Embryos Developed to 8-cell” value was 55%; the “Percent of Embryos Developed to 16-cell” value was 51% and 51^b %; the “Percent of Embryos Developed to Blastocyst” value is 33% and 33^b %. In addition, under “Hb 1 μg/ml + CG”, the “Percent of Embryos Developed to Morula” value was 40% and 40^b %. Under “Hb 1 μg/ml only, absence of CG”, the “Percent of Embryos Developed to 2-cell” value is on record as 73%, the “Percent of Embryos Developed to 8-cell” value came to 52%, the “Percent of Embryos Developed to 16-cell” value was 34^a % and the “Percent of Embryos Developed to Blastocyst” value was 19^a %. Besides, the “Percent of Embryos Developed to Morula” value (Hb 1 μg/ml only, absence of CG) is 27^ab %. In addition, the “promotion of pre-hatching development of embryos” value (Hb 1 μg/ml, cultured in the absence of CG) was “not seen to promote”.
